Calls of active or inactive are those of the source.
Tests used:
[1] = Counterscreen for IDE inhibitors: Luminescence-based cell-based high throughput dose response assay to identify compounds that are cytotoxic to HEK cells. [Related pubchem assays: 434962 (Primary screen (IDE inhibitors in singlicate)), 449730 (Counterscreen (Cytotoxicity in triplicate)), 435028 (Confirmation (IDE inhibitors in triplicate)) …; type: functional; conditions: HEK293
Insulin-degrading enzyme = biological target: T1, Insulin-degrading enzyme (Homo sapiens, UniProt P14735); experiment: Dose Response: Fluorescence polarization-based cell-based high throughput dose response assay for inhibitors of insulin-degrading enzyme (IDE). [Related pubchem assays: 434962 (Primary screen (IDE inhibitors in singlicate)), 449730 (Counterscreen (Cytotoxicity in triplicate)), 435028 (Confirmation (IDE inhibitors in triplicate)), 434984 (Summary …; type: functional
T1 sequence (P14735 whole entry): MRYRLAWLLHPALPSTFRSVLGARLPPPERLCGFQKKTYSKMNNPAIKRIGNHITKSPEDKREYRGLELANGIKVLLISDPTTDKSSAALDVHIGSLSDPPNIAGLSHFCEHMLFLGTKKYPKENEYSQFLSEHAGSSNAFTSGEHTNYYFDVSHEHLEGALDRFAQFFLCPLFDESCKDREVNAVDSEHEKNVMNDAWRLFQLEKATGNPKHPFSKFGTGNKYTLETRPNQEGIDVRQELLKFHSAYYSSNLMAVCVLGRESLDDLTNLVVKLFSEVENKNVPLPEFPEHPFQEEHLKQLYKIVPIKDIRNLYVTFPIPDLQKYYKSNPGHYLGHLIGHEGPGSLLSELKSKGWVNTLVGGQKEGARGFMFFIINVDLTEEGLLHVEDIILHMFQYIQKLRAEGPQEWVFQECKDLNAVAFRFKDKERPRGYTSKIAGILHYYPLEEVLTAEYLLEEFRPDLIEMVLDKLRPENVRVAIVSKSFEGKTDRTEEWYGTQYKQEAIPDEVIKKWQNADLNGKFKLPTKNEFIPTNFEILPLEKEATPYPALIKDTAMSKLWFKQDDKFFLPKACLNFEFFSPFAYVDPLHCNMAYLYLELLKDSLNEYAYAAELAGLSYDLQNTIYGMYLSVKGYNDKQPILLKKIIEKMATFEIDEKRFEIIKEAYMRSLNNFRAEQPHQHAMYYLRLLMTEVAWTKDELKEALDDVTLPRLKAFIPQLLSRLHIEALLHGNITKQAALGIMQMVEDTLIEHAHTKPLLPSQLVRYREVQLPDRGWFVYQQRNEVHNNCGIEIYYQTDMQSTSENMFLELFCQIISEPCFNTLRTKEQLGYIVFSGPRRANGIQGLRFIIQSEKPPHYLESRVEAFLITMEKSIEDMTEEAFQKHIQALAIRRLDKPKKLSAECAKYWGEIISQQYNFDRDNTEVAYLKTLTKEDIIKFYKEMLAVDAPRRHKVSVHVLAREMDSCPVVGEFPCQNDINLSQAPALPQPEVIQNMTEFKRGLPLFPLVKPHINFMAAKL

Candida albicans [2] = experiment: fluconazole-resistant Candida strain growth inhibitors – CaCi-8 strain, dry powder, set 4, dose response (AID 488950); type: functional, organism-based
Candida albicans [3] = experiment: Candida growth reduction in fluconazole presence – CaCi-2 strain, Alamar Blue, dry powder, set 2, antifungal resistance reversal project, dose response (AID 488930); type: functional, organism-based
Candida albicans [4] = experiment: C. albicans growth inhibition with fluconazole – CaCi-2 strain, Alamar Blue, dry powder, set 4, dose response (AID 488943); type: functional, organism-based
Candida albicans [5] = experiment: resistant Candida growth with fluconazole co-treatment – CaCi-8 strain, Alamar Blue, dry powder, set 2, dose response (AID 488909); type: functional, organism-based
[6] = biological target: T2, Luciferin 4-monooxygenase (Photinus pyralis, UniProt P08659); experiment: Counter Screen for Luciferase-based Assay Positives. [Related pubchem assays: 620, 618, 411 ]
T2 sequence (P08659 whole entry): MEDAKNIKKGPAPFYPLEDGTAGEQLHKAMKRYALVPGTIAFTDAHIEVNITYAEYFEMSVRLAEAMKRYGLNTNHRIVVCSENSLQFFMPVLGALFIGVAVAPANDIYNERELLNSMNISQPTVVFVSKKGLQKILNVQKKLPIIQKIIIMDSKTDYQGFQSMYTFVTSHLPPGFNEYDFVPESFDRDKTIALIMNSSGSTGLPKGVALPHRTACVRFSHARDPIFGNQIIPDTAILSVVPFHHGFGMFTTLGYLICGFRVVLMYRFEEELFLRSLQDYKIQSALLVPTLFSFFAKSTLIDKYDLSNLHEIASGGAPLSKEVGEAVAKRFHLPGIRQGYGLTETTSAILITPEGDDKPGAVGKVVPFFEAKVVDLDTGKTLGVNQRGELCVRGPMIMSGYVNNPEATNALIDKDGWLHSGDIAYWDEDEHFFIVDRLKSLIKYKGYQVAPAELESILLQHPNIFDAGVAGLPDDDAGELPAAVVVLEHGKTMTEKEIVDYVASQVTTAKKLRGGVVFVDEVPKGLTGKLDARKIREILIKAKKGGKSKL

cells [7] = type: functional, cell-based
[8] = HPDE-C7 pancreatic duct cell viability loss – fluorescence, HTS (AID 430); type: functional, cell-based; conditions: Homo sapiens
[9] = biological target: T2, Luciferin 4-monooxygenase; experiment: inhibition of purified Photinus pyralis luciferase – biochemical, luminescence, dose response (AID 1891)
[10] = Luminescence Cell-Based Dose Confirmation HTS to Identify Inhibitors of Platelet Dense Granule Release. [Related pubchem assays: 1663 (Primary HTS), 1678 (Summary of Project)]; type: functional
[11] = viability loss of HPDE-C7K cells – cell-based, fluorescence, HTS, primary screen (AID 431); type: functional; conditions: Homo sapiens
cells [12] = type: functional, cell-based; remark: listed apart in the source
HT-1080 = experiment: HT1080 cell viability loss – fluorescence readout (AID 620); type: functional, cell-based; conditions: Homo sapiens
[13] = biological target: T3, Sphingosine 1-phosphate receptor 4 (Homo sapiens, UniProt O95977); experiment: Late stage fluorescence dose response cell-based screening assay for antagonists of the Sphingosine 1-Phosphate Receptor 4 (S1P4). [Related pubchem assays: 1524 (Confirmation screen (S1P4 antagonists).), 1510 (Primary screen (S1P4 antagonists).), 1853 (Summary AID (S1P4 antagonists).), 1692 (Dose response screen (S1P4 antagonists).)]; type: functional
T3 sequence (O95977 whole entry): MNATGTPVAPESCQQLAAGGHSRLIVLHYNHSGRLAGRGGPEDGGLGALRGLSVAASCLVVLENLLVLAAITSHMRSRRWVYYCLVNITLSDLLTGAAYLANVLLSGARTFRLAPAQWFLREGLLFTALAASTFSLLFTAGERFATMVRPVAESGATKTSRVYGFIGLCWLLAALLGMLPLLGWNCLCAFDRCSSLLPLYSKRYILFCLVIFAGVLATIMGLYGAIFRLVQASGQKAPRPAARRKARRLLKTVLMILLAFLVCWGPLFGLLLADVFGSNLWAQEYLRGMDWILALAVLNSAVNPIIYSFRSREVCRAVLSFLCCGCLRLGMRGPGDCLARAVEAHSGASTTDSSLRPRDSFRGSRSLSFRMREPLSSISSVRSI

[14] = biological target: T3, Sphingosine 1-phosphate receptor 4; experiment: Fluorescence dose response cell-based high throughput screening assay for antagonists of the Sphingosine 1-Phosphate Receptor 4 (S1P4). [Related pubchem assays: 1524 (Confirmation in triplicates.), 1510 (Primary screen.)]; type: functional
[15] = biological target: Sphingosine 1-phosphate receptor 1 (Homo sapiens, UniProt P21453); type: functional;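 further: Tango beta-arrestin reporter U2OS cells stimulated with S1P near its EC80; inhibitor potency meaning antagonism of receptor activation by the natural agonist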
Chain of Sphingosine 1-phosphate receptor 1 (P21453 whole entry): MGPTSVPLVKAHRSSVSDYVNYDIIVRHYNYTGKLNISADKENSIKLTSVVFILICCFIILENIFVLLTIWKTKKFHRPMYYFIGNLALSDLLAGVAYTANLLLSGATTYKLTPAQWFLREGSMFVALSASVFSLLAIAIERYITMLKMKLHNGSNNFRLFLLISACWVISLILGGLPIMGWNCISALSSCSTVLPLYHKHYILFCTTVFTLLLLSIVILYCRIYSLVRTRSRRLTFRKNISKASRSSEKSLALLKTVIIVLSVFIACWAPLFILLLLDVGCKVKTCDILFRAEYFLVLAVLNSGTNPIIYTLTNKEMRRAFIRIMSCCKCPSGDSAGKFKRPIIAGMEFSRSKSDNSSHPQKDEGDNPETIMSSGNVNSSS

[16] = THP-1 cell cytotoxicity, dose response, cytotoxicity control for non-replicating M. tuberculosis project (AID 489025); type: functional
[17] = HepG2 cell cytotoxicity, dose response, cytotoxicity control for non-replicating M. tuberculosis project (AID 489018); type: functional; conditions: Mycobacterium tuberculosis
cells [18] = type: functional
CHO = CHO cell viability loss, potency – luminescence, cytotoxicity control for TLR9-MyD88 binding inhibitor project, dose response (AID 588339); type: functional, cell-based, hamster; conditions: Cricetulus griseus;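 further: CHO cells stably coexpressing TLR9 and MyD88 fusions from primary screen; compound exposure lasted 48 hours before viability readout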
[19] = biological target: T4, Replicative DNA helicase DnaB (Mycobacterium tuberculosis, UniProt P9WMR3); experiment: DnaB intein splicing inhibitors, dose response, biochemical, cell-free fluorescence (AID 449749); type: functional
T4 sequence (P9WMR3 whole entry): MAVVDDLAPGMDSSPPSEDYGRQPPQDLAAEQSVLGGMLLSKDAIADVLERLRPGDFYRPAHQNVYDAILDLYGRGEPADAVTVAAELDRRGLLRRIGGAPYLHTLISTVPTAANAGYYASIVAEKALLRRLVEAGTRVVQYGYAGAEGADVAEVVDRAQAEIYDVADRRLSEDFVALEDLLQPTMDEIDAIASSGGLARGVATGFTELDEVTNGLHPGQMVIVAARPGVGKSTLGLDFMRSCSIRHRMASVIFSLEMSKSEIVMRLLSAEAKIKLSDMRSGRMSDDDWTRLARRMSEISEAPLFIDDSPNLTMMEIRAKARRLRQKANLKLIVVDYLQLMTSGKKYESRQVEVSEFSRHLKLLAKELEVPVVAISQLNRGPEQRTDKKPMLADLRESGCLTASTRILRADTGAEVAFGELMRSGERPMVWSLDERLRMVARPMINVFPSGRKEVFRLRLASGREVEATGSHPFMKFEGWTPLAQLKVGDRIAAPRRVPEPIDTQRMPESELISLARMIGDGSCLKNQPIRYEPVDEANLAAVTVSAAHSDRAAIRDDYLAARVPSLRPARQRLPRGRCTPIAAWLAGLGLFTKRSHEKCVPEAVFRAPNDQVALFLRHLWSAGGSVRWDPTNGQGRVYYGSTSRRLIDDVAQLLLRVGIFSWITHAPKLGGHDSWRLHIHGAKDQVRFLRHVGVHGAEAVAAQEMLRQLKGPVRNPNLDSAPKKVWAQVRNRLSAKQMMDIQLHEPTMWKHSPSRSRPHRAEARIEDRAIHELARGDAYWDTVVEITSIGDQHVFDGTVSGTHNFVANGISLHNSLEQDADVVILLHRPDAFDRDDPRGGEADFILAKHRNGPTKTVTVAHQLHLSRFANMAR

Protein RecA = biological target: T5, Protein RecA (Mycobacterium tuberculosis, UniProt P9WHJ3); experiment: Fluorescence Cell-Free Homogeneous Dose Retest to Identify Inhibitors of RecA-Intein Splicing Activity. [Related pubchem assays (depositor defined):AID2097, AID2223, AID489010, AID492950]; type: functional
T5 sequence (P9WHJ3 whole entry): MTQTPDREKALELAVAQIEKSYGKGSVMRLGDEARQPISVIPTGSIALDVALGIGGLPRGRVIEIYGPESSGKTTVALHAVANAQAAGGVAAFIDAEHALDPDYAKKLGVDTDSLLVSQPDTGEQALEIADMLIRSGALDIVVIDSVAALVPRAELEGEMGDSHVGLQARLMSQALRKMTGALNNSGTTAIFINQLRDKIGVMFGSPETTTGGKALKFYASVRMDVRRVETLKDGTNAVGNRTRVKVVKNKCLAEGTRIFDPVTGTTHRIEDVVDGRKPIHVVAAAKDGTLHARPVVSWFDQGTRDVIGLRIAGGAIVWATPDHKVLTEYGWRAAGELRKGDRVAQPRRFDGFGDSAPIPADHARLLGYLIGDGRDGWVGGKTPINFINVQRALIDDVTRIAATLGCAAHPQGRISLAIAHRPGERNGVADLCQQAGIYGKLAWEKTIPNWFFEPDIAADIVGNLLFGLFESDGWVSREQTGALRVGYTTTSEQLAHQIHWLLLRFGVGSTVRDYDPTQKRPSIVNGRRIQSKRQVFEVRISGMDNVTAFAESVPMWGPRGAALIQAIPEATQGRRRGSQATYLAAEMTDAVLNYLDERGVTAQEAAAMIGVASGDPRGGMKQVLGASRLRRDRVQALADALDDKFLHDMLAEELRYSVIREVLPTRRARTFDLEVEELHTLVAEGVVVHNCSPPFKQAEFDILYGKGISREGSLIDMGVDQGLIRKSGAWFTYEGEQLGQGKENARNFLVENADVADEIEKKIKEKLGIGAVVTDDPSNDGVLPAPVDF

Beta Lactamase = Beta Lactamase (Pseudomonas aeruginosa, UniProt Q932Y6); experiment: BLA reporter interference, concentration series – BLA reporter cells, FRET fluorescence, artefact control for TLR9-MyD88 binding inhibitor project, dose response (AID 588341); type: cell-based;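 further: cell based assay in CHO-K1 cells stably expressing beta-lactamase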
Chain of Beta Lactamase (Q932Y6 whole entry): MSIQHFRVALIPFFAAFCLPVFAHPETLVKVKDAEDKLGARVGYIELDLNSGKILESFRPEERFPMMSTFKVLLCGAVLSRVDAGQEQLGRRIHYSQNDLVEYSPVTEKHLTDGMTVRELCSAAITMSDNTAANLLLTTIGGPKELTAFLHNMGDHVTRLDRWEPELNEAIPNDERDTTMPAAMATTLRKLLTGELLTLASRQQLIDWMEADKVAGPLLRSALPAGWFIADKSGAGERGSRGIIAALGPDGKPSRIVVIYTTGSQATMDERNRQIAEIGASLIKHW

[20] = biological target: T6, Beta-2 adrenergic receptor (Homo sapiens, UniProt P07550); experiment: ADRB2 activation measured by internalization – cell-based, FAP fluorogen, flow cytometry, cherry pick 1, dose response (AID 588763); type: functional
T6 sequence (P07550 whole entry): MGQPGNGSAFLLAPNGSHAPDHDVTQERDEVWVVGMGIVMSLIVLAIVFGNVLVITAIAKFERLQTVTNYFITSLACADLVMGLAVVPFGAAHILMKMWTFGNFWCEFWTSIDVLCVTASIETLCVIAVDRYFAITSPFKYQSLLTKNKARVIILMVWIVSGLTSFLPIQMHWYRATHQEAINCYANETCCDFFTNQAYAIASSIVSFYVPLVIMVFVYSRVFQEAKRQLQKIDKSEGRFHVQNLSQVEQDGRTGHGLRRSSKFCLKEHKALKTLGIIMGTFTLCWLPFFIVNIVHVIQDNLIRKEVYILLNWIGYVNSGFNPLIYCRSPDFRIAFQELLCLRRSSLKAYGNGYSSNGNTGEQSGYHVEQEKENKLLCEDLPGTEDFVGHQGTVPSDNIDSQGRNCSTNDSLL

[21] = biological target: T6, Beta-2 adrenergic receptor; experiment: Dose response for HTS for Beta-2AR agonists via FAP method from Powderset2.; type: functional
INS1 [22] = experiment: beta-cell survival under cytokine stress – INS-1E, ATP luminescence, dry powder, dose response (AID 488844); type: functional, cell-based; conditions: Rattus norvegicus
INS1 [23] = experiment: INS-1E mitochondrial potential loss inhibitors – cell-based, JC-1 fluorescence, dry powder, set 2, dose response (AID 488867); type: functional; conditions: Rattus norvegicus
INS1 [24] = experiment: INS-1E mitochondrial potential rescue under cytokines – cell-based, JC-1 fluorescence ratio, dry powder, dose response (AID 488931); type: functional; conditions: Rattus norvegicus

## O=C(C1CCC1)N1CCN(c2ccnc3cc(Cl)ccc23)CC1
[1]
  IC50: 22.1 µM (not active)
Insulin-degrading enzyme
  IC50: 31.6 µM (not active)
Candida albicans [2]
  AC50: 5 µM (active)
Candida albicans [3]
  AC50: 1.5 µM (active)
Candida albicans [4]
  AC50: 16.9 µM (active)
Candida albicans [5]
  AC50: 0.58 µM (active)

## CCOC(=O)CCS(=O)(=O)c1nc(-c2ccccc2)cc(C(F)(F)F)n1
[6]
  EC50: < 0.2 µM (active)
Cells [7]
  EC50: > 350 µM (not active)
[8]
  EC50: 4.94 µM (active)
[9]
  EC50: > 112 µM (not active)
[10]
  EC50: 14.1 µM (active)
[11]
  EC50: 4.4 µM (active)
Cells [12]
  EC50: 43.4 µM (active)
HT-1080
  EC50: 14 µM (active)
[13]
  IC50: 3.58 µM (not active)
[14]
  IC50: 0.843 µM (active)
[15]
  IC50: 15.5 µM (not active)
[16]
  CC50: 19.9 µM (active)
[17]
  CC50: 16.2 µM (active)
Cells [18]
  IC50: 2.7 µM (active)
CHO
  IC50: 3.49 µM (active)
[19]
  AC50: 4.45 µM (active)
Protein RecA
  EC50: 3.23 µM (active)
Beta Lactamase
  IC50: 28.2 µM (inactive)

## CCOC(=O)c1ccc(NC(=O)Cn2nnc(-c3ccccc3)n2)cc1
[20]
  EC50: 1.18 µM (active)
[21]
  EC50: 1.31 µM (active)

## C[C@@H]1CN([C@H](C)CO)C(=O)c2cccc(NC(=O)Nc3ccc(F)cc3)c2O[C@H]1CN(C)S(=O)(=O)c1ccc(Cl)cc1
INS1 [22]
  AC50: 48 µM (active)
INS1 [23]
  AC50: 227 µM (active)
INS1 [24]
  AC50: 62.1 µM (active)
